Results from patent US8114393B2, “Methods and compositions for phosphate binding” (Wisconsin Alumni Research Foundation, priority 2005, dated 2012).

Tests used:
[1] = tested on: Intestinal Phosphate Absorption; test: Intestinal phosphate absorption: oral 33P dose after gavage of phosphate binder; format: in vivo, rats; details: 14.4 mg Renagel or 10 mg DAB-8 as acetate or citrate; 10 mM KH2PO4; 60 min
Protocol: Animals. Male Sprague-Dawley rats (Harlan Sprague-Dawley, Madison, Wis.) weighing approximately 120 grams were used in all experiments.
In experiments to measure ^33P absorption, the rats were fed a laboratory chow diet (Lab Diet 5012, Richmond, Ind.) containing 1% calcium and 0.7% phosphorus ad libitum for less than one week prior to the experiment.
Intestinal Phosphate Absorption. Following an overnight fast, rats were administered 0.5 mL water or an oral phosphate binder dissolved in water via gastric gavage. A second dose of 0.5 mL containing 3 μCi ^33P (as H3PO4, specific activity 155.8 Ci/mg, New England Nuclear/Perkin Elmer, Boston, Mass.) in a 10, 50, or 100 mM KH2PO4 buffer at pH 7.4 was immediately administered via gastric gavage. Rats were killed by CO2 asphyxiation immediately or 60 minutes after the oral dose. The rats killed immediately (labeled “0 min control” in figures) were used to determine if the oral ^33P dose was properly administered and completely recovered.
Blood was collected via heart puncture and centrifuged at 1500×g for 15 minutes at 22° C. to yield serum. A suture was tied to the cranial end of the esophagus to contain liquid inside the stomach. The entire digestive tract was then removed and allowed to dissolve for several days in concentrated HNO3 (approximately 1 mL HNO3 per gram tissue). The exact volume of the dissolved digestive tract was determined by diluting the dissolved tissues to equal volumes with water.
The amount of radioactivity in total body serum and total volume of dissolved tissue was determined following liquid scintillation counting of 50 μL aliquots in triplicate (Tri-Carb Liquid Scintillation Analyzer, Perkin-Elmer/Packard, Boston, Mass.). Total body serum was estimated to be 40 mL serum/kg body weight. (Hawk T et al., 1999, Formulary for laboratory animals, Ames, Iowa: Iowa State University Press.)
Statistical analysis. Data are presented as means±standard error of the means (SEM). Treatment groups were compared by a fully factorial analysis of variance (ANOVA) and means were subjected to Tukey, Scheffe, and Fisher's Least-Significant-Difference (LSD) tests (Systat 5.2.1, Systat Software, Inc., Point Richmond, Calif.). Differences were considered significant if at least two of the tests detected significance with a p-value <0.05, unless specified otherwise.
Materials and Methods. The relevant materials and methods were the same as set forth above except that instead of using “0.5 mL of water or 39.5 mg calcium acetate, 14.4 mg RENAGEL, or up to 132.8 mg of test dendrimer,” the following was used “0.5 mL of water, 14.4 mg RENAGEL or 10 mg DAB-8 as the hydroacetate or hydrocitrate form dissolved in water.”

[2] = tested on: intestinal phosphorus absorption; test: Fecal phosphorus content, increasing dietary levels of DAB-8 hydroacetate for three weeks; format: in vivo, rats
Text: Materials and Methods. Young male Sprague-Dawley rats weighing approximately 90 g were fed a purified diet containing 0.47% calcium and 0.2% inorganic phosphorus, solidified with molten agar, for 5 days. After this acclimation period, the rats were divided into 5 groups by body weight. One group remained on the control diet while the other 4 groups were fed diets containing increasing levels of DAB-8 in the hydroacetate salt form (0.09 to 0.7%). After 1, 2 and 3 weeks on the diets, the rats were moved to metabolic caging and 24 to 48 hour fecal collections were obtained. The feces were dried then ashed in a muffle oven at 700° C. for 24 hours. The resulting ash was dissolved in 6N HCl and the phosphorus content was measured using an in-house colorimetric assay.
Data are expressed as means±SEM. Data were subjected to analysis of variance (ANOVA), and group means compared using Tukey, Scheffe and Fisher's LSD test.
Young rats were either control diet (“0”), or the same diet containing one of four levels of DAB-8 as the hydroacetate for three weeks. Feces were collected from the rats using metabolic housing for 24 to 48 hours at the end of the first (week 1), second (week 2) or third (week 3) weeks. Feces was dried, then ashed in a muffle oven. Resulting ash was dissolved in 6N HCl. Phosphorus content was determined using an in-house colorimetric assay. *Indicates significant difference from control diet with a p-value of […].

## Polypropylenimine octaamine Dendrimer decahydroacetate [DAB-8 as acetate]
[1]
  33P in the serum compared with vehicle pretreatment (FIG. 26): significantly less
  33P retained in the gut compared with vehicle pretreatment (FIG. 25): significantly more
[2]; all four levels of the phosphate binder (0.09 to 0.7%)
  fecal phosphorus content versus control diet, first 2 weeks on the diet: significant increase
[2]; daily consumption, 0.09 to 0.7% of diet
  fecal phosphorus output: dose-dependent increase
[2]; inferred from fecal phosphorus, 0.09 to 0.7% of diet
  dietary phosphorus absorption in vivo: dose-dependent reduction
[2]; only the highest dietary level
  fecal phosphorus content versus control diet, week 3: retains significance
